{
  "source": "patent US4132778A",
  "about": "“Antibiotic A-32887” (Eli Lilly and Company, priority 1977, dated 1979)",
  "key": {"[1]": {"system": "Fusobacterium symbiosum", "assay": "Standard agar-dilution assay, anaerobic bacteria, Table IX", "format": "cell-based", "settings": "24-hour incubation"}, "[2]": {"system": "E. tenella AND E. maxima", "assay": "Anticoccidial feeding test in chicks, E. tenella and E. maxima (Table XI)", "format": "in vivo", "design": "Average Lesion Score, Total Intestinal / Average Lesion Score, Cecal: scale not given here; Mortality: unit not given here", "settings": "for Mortality: due to coccidiosis", "experimental": "^1 70,000 oocysts/bird of each of E. tenella and E. maxima\n^2 Infected 48 hours postmedication; terminated seven days\n^3 Four replicates; five birds/replicate"}, "[3]": {"system": "Bacteriodes melaninogenicus 2736", "assay": "Standard agar-dilution assay, anaerobic bacteria, Table IX", "format": "cell-based", "settings": "24-hour incubation"}, "[4]": {"system": "powdery mildew disease in bean plants", "assay": "Plant disease test, spray", "format": "in vivo", "settings": "400 ppm as a spray", "source_text": "The A-32887 compounds are also useful in the treatment of certain plant diseases."}, "[5]": {"system": "Bacteriodes melaninogenicus 1856/28", "assay": "Standard agar-dilution assay, anaerobic bacteria, Table IX", "format": "cell-based", "settings": "24-hour incubation", "experimental": "(§1) Table IX summarizes the MIC's at which A-32887 (Na-K salt) inhibits various anaerobic bacteria, as determined by standard agar-dilution assay. End points were read after 24-hour incubation."}, "[6]": {"system": "Bacteriodes fragilis ssp fragilis 111", "assay": "Standard agar-dilution assay, anaerobic bacteria, Table IX", "format": "cell-based", "settings": "24-hour incubation", "experimental": "as §1"}, "[7]": {"system": "Bacteriodes vulgatis", "assay": "Standard agar-dilution assay, anaerobic bacteria, Table IX", "format": "cell-based", "settings": "24-hour incubation", "experimental": "as §1"}, "[8]": {"system": "Actinomyces israelii", "assay": "Standard agar-dilution assay, anaerobic bacteria, Table IX", "format": "cell-based", "settings": "24-hour incubation", "experimental": "as §1"}, "[9]": {"system": "Clostridium septicum", "assay": "Standard agar-dilution assay, anaerobic bacteria, Table IX", "format": "cell-based", "settings": "24-hour incubation", "experimental": "as §1"}, "[10]": {"system": "coccidia", "assay": "Feeding experiments in chicks challenged with coccidia", "format": "in vivo, Eimeria species; chicks", "settings": "levels as low as 40 ppm in feed of young chickens"}, "[11]": {"system": "acute swine dysentery", "assay": "Swine dysentery test in infected pigs (Table XVII)", "format": "in vivo", "settings": "100 g/ton in feed", "experimental": "In another aspect the A-32887 compounds are useful in the prevention and control of swine dysentery. A preferred method of administration to swine is by incorporation of an appropriate amount of an A-32887 compound into the feed ration. […] In this test, groups of four pigs were challenged orally with 5.0 ml of a colon-content/tissue suspension prepared from pigs suffering from acute swine dysentery. Treated pigs were challenged 24 hours after initiating feed treatment. The test was carried out over a period of 26 days, observing pigs daily, and weighing them weekly and on day 26.\n*Fecal material for each group was rated daily with 0= normal, 1= slight\nblood or mucus, 2= moderate blood or mucus, 3= marked blood or mucus.\nIndex is the total score per treatment for 25 days."}},
  "data": [
    {"molecule": "CO[C@H]1CC[C@H](OC2[C@@H](C)[C@@](C)(O)O[C@H]([C@H]3CC[C@H]([C@@H]4CC[C@H]([C@@]5(C)O[C@]6(O[C@H](C[C@@H]7O[C@](O)([C@@H](O)C(=O)O)[C@@H](C)[C@H](OC)[C@@]7(C)OC)C[C@@H](OC)[C@H]6C)[C@H](C)[C@H]5OC)O4)O3)[C@H]2C)O[C@@H]1C.[K+].[Na+]", "note": "(stereo partly drawn) [A-32887 (Na-K salt)]", "values": [
      {"measurement": "MIC", "setting": "[1]", "value": 32, "unit": "µg/mL"},
      {"measurement": "Average Lesion Score, Cecal", "setting": "[2]; 40 ppm in feed", "value": 1.6},
      {"measurement": "Average Lesion Score, Total Intestinal", "setting": "[2]; 40 ppm in feed", "value": 4.9},
      {"measurement": "Mortality", "setting": "[2]; 40 ppm in feed", "value": 0},
      {"measurement": "Average Lesion Score, Cecal", "setting": "[2]; 60 ppm in feed", "value": 0.6},
      {"measurement": "Average Lesion Score, Total Intestinal", "setting": "[2]; 60 ppm in feed", "value": 5.9},
      {"measurement": "Mortality", "setting": "[2]; 60 ppm in feed", "value": 0},
      {"measurement": "Average Lesion Score, Cecal", "setting": "[2]; 80 ppm in feed", "value": 0.3},
      {"measurement": "Average Lesion Score, Total Intestinal", "setting": "[2]; 80 ppm in feed", "value": 3.0},
      {"measurement": "Mortality", "setting": "[2]; 80 ppm in feed", "value": 0},
      {"measurement": "Average Lesion Score, Cecal", "setting": "[2]; 100 ppm in feed", "value": 0},
      {"measurement": "Average Lesion Score, Total Intestinal", "setting": "[2]; 100 ppm in feed", "value": 1.6},
      {"measurement": "Mortality", "setting": "[2]; 100 ppm in feed", "value": 0},
      {"measurement": "MIC", "setting": "[3]", "value": 2, "unit": "µg/mL"},
      {"measurement": "inhibition of powdery mildew disease", "setting": "[4]", "value": "inhibits powdery mildew disease"},
      {"measurement": "MIC", "setting": "[5]", "value": 32, "unit": "µg/mL"},
      {"measurement": "MIC", "setting": "[6]", "value": 2, "unit": "µg/mL"},
      {"measurement": "MIC", "setting": "[7]", "value": 4, "unit": "µg/mL"},
      {"measurement": "MIC", "setting": "[8]", "value": "≤ 0.5", "unit": "µg/mL"},
      {"measurement": "MIC", "setting": "[9]", "value": "≤ 0.5", "unit": "µg/mL"},
      {"measurement": "mortality and number of lesions in challenged chicks", "setting": "[10]", "value": "decreases mortality and the number of lesions"},
      {"measurement": "No. Died per No. in Group", "setting": "[11]", "value": "0/4"},
      {"measurement": "No. with Colon Lesions/No. in Group", "setting": "[11]", "value": "2/4"},
      {"measurement": "Diarrhea Index", "setting": "[11]; total score per treatment for 25 days", "value": 22}
    ]}
  ]
}
